{"source": "patent US11542475B2", "about": "“3D microphysiologic system” (Northwestern University, priority 2014, dated 2023)", "key": {"[1]": {"tested_on": "primary human endocervical cells", "test": "Immunohistochemistry of 3D endocervical cultures (PR, ER, Ki67)", "type": "cell-based", "details": "day-14 (E2), day-28 (E2+P4)", "description": "To represent a 28-day human menstrual cycle in vitro, a stepwise hormone regimen was added to the cells. For the first 7 days, cells were incubated with 0.1 nM E2, followed by 1 nM E2 for the next 7 days (FIG. 45). Then cells were treated for 1 nM E2 and 10 nM P4 for an additional 7 days, followed by 0.1 nM E2 and 50 nM P4 for 5 days. Then media without hormones were added for the final 2 days for a total culture period of 28 days. Media was collected every 48 h and stored at −20° C. For PR antagonist studies, cells were treated with 100 nM RU486 (Sigma, MO) which was added on day-21. To visualize the cells on scaffold, cells were infected with the adenovirus containing pAD-eGFP-RLC (Cell Imaging Core, Northwestern University) (Khuon et al. Journal of cell science 123:431-440.; herein incorporated by reference in its entirety) by adding 2 μl of amplified virus to 3.5 ml of media per […] for 24 h.\nScaffolds were washed twice in PBS, covered with histogel (Fisher Scientific, MA) and fixed in 4% paraformaldehyde for 5 h. Processing and hematoxylin and eosin (H&E) staining was performed at the Northwestern University Center for Reproductive Sciences Histology Core (Chicago, Ill.). […] HRP activity was detected using 3,3′-Diaminobenzidine (DAB) in 1:50 dilution (Dako, CA) as substrate for 30-60 sec and then counterstained with hematoxylin. […]"}, "VEGF-A": {"tested_on": "VEGF-A", "test": "ELISA of fallopian culture medium: VEGF-A", "type": "cell-based, human", "details": "10 nM E2, 7 days, n=7; not significantly altered", "description": "Tissues were micro-dissected in alpha-MEM (Gibco, Carlsbad, Calif.) with 1% penicillin-streptomycin (Invitrogen, Carlsbad, Calif.). Individual fimbriae were separated into ˜50 mm^3 pieces. A portion of the tissue was fixed in 2% paraformaldehyde for use as an uncultured control. For optimization studies, fimbriae were cultured without matrix, encapsulated in 0.5% alginate, or encapsulated in 0.5% alginate with 1 mg/ml collagen and 0.1% fibronectin, as previously described for murine cultures (King et al. J Vis Exp. 2011.; herein incorporated by reference in its entirety). For subsequent treatments, 0.5% alginate encapsulated fimbriae were randomly assigned to treatment groups, with at least five fimbriae per condition, per patient, in a 24-well plate containing alpha-MEM and 1% penicillin-streptomycin. […] Prior to fixation, fimbriae were labeled with 10 μM bromodeoxyurine (BrdU, Sigma-Aldrich) for 24 hours to denote proliferating cells. […]\nIL8, VEGF-A, and FGF2 were detected in fallopian culture medium by enzyme-linked immunosorbent assay for human IL8 (EMD Millipore, Billerica, Mass., USA), VEGF-A (RayBiotech, GA, USA), or FGF2 (Abcam) respectively using the manufacturers' protocols. […] Results were normalized to total protein content as determined by western blotting and Ponceau staining to account for difference in tissue size between treatment groups. […]"}, "[2]": {"tested_on": "human fallopian tube epithelium", "test": "Fallopian epithelia cilia beating quantification", "type": "cell-based", "details": "7 days culture; P4 added to E2", "description": "Human fallopian tissue was obtained from routine hysterectomies from women in their reproductive years (ages range from 26 to 50 years old) and who had not undergone exogenous hormonal treatment for at least three months prior to surgery. Informed consent was obtained from each patient and approval granted by the ethics committee of the Northwestern University. Human fallopian tissue was kept in the DMEM/F12 medium with 10% FBS on ice and processed within 24 hours. The tissue was washed with warm PBS solution two times before being transferred into warm dissection medium (Liebowitz 15 with 0.5% P/S and 10% FBS). After cleaning connective tissue from outside of the fallopian tissue, the fallopian tube was cut open and the inner epithelia layer was mechanically dissected using forceps. […]\nFallopian epithelia layers were cultured in estradiol (E2) 1 nM, E2 1 nM+progesterone (P4) 10 nM, E2 0.1 nM+P4 50 nM or with solvent only negative control for 7 days. Cilia beating movies were acquired using an Andor Spinning Disk Confocal with 5 ms exposure time and 5 ms readout time. […] The Multiple Kymograph plugin for the NIH ImageJ software was used to quantify cilia beating frequency. In each movie, 8 clusters of cilia were picked for the cilia beating quantification."}}, "data": [{"smiles": "C[C@]12CC[C@@H]3c4ccc(O)cc4CC[C@H]3[C@@H]1CC[C@@H]2O", "note": "[E2, estradiol]", "values": [{"measurement": "Ki67 staining compared to control", "setting": "[1]", "result": "increased staining"}, {"measurement": "VEGF-A increase compared to vehicle control", "setting": "VEGF-A", "result": "140%±75%"}, {"measurement": "cilia beating frequency (CBF)", "setting": "[2]", "result": "significantly increased"}]}]}
